# Experimental data from paper PMC10761660, “Preclinical evaluation of an ^18F-labeled N^ε-acryloyllysine piperazide for covalent targeting of transglutaminase 2” (EJNMMI Radiopharmacy and Chemistry, 2024).
# Tests used:
# Liver microsome assay = format: in vitro ADME, murine; details: 40 µM, after 60 min
# Method: Microsome experiments with [^18F]7b in the presence of NADPH were performed according to the procedure recently described by us with slight modifications (Lemm et al. [2022]). […] [^18F]7b dissolved in 0.5% ethanol/PBS (100 µL; 0.2% ethanol final, e.g. 108 MBq/mL or 4.1 µM final) was mixed with PBS (112.5 µL) and murine liver microsomes (MLM, 12.5 µL of 20 mg/mL stock; 1 mg/mL final; Gibco™ Cat. No. MSMCPL, Lot. No. MS053-A) in a 1.5 mL Eppendorf tube and the mixture was warmed for 5 min at 37 °C. Subsequently, NADPH (25 µL of freshly prepared 20 mM solution in PBS, 2 mM final) was added and the mixture was incubated at 37 °C. As a control incubation, the NADPH solution was replaced by PBS. At distinct time points (5, 10, 15, 30, and 60 min), an aliquot (40 µL) was withdrawn and added to ice-cold CH3CN (160 µL). The mixture was vortexed for 30 s, stored on ice for 4 min and centrifuged (5 min at 16,100 × g). The resulting supernatant was used for radio-HPLC and radio-TLC analyses. For radio-HPLC, the Shimadzu Nexera X2 UHPLC system described above including the conditions for analysis was used. Radio-TLC was carried out on reversed-phase TLC plates (ALUGRAM RP-18W/UV254 from Macherey–Nagel, Düren, Germany) with a mobile phase of 40% CH3CN in water containing 0.1% trifluoroacetic acid. Visualization of radioactive spots and subsequent analysis was conducted as described above.
# Testosterone (40 µM final) was used as positive control for the activity of the MLM and was separately treated and analyzed after incubation times of 5, 10, 15, 30, and 60 min as described above (0% ethanol final; HPLC gradient profile: 45% eluent B for 10 min followed by washing of the column with 45% to 95% eluent B in 1 min, 95% eluent B for 5 min, 95% to 45% eluent B in 1 min, 45% eluent B for 8 min; total time of 25 min).
# For that, solutions of [^18F]7b in 0.5% ethanol/PBS (10 µL; 0.1% ethanol final, 17 MBq/mL or 1.14 µM final) were mixed with the respective tenfold concentrated solutions of 7b dissolved in 10% DMSO/PBS (5 µL, 1% DMSO final and 5/10/20/40/80 µM of 7b final), PBS (27.5 µL) and murine liver microsomes (2.5 µL of 20 mg/mL stock) in a 1.5 mL Eppendorf tube and the mixture was warmed for 5 min at 37 °C. Subsequently, NADPH (5 µL of freshly prepared 20 mM solution in PBS, 2 mM final) was added and the mixture was incubated at 37 °C. At distinct time points (5, 10, 15, 20, and 30 min), an aliquot (5 µL) was withdrawn and added to ice-cold CH3CN (40 µL). The subsequent steps were performed as described above including analysis by radio-TLC.
# For the t1/2 approach at n.c.a. level, the obtained fractions of intact [^18F]7b (by radio-HPLC or radio-TLC analysis) were plotted against the time. Nonlinear regression was performed by one-phase decay (equation 1) as implemented in GraphPad Prism (GraphPad Prism 9.5.1.733), which provided the t1/2 values. The fraction at X = 0 min, Y0, was constrained to 1.0.1 Y0=Y0-Plateau×e^-k×X+Plateau
# Subsequently, the intrinsic clearance, CLint (mL*min^−1*kg^−1), was calculated using equation 2 (Obach et al. [1997]; Schneider et al. [2019])2 CLint=ln2/t1/2min×fuinc×1/MLM(mg/mL)×microsomalprotein/liverweightmg/g×liverweight/bodyweightg/kg with the scaling factors of 60.1 mg/g (microsomal protein/liver weight for rats as no value for mice could be found) (Carlile et al. [1997]) and 87.5 g/kg (liver weight/body weight for mice) (Davies and Morris [1993]). The concentration of the MLMs was 1 mg/mL.
# For the Vmax/Km approach, the obtained fractions of intact [^18F]7b (by radio-TLC analysis) were plotted against the time (fraction plot). The concentration plot was obtained by transformation of the fractions into concentrations of 7b by taking the experimentally determined molar activity of [^18F]7b into account (i.e. final concentration of 1.14, 6.16, 11.14, 21.14, 41.14, and 81.14 µM for 7b in the performed experiments). Both plots were analyzed by nonlinear regression according to one-phase decay (equation 1). […]
# [1] = parameters: method as in Schuppan et al. [2021]; details: patients with celiac disease; ref Schuppan et al. [2021]; cited from earlier work
Structure (SMILES),consumption of positive control by MLM (Liver microsome assay),effect on duodenal mucosa [1],tolerability [1]
"C[C@]12CC[C@H]3[C@@H](CCC4=CC(=O)CC[C@@]43C)[C@@H]1CC[C@@H]2O [Testosterone, reference compound]",completely consumed,–,–
CCC(CC)CNC(=O)Cn1cccc(NC(=O)[C@H](CC/C=C/C(=O)OC)NC(=O)c2cncn2C)c1=O [ZED1227],–,attenuated damage of the duodenal mucosa,well-tolerated
